The text below walks through data of patent US11071731B2, “Allosteric modulators of the mu opioid receptor” (Chiromics, LLC, priority 2017, dated 2021).

Bounds are passed on as bounds.

For test [1], the target named is T1, mu opioid receptor (MOR) (Homo sapiens, UniProt P35372). The experiment in a line: PathHunter β-arrestin recruitment assay, PAM mode with EC20 endomorphin-1. The format is cell-based. In short, it runs like this: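 β-Arrestin recruitment to the receptor was tracked by chemiluminescent β-galactosidase activity from complementing fragments (ED on receptor, EA on β-arrestin). Per-compound outputs were EC50 and percent maximal response.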
T1 sequence (P35372 whole entry, the tested form may be a part): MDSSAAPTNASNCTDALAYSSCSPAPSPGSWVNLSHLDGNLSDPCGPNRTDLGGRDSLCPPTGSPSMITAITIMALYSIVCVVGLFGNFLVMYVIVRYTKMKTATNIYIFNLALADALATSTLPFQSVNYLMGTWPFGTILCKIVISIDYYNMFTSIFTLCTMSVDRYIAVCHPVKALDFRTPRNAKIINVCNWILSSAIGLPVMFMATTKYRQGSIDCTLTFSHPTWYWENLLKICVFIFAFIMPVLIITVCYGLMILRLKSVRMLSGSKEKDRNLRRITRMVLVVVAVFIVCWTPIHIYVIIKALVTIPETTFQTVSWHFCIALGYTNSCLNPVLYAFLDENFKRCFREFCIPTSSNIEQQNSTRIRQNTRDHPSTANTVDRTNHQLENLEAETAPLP

The target in test [2] is T1, mu opioid receptor (MOR). The experiment in a line: Hit Hunter cAMP signaling assay (adenylyl cyclase inhibition), PAM mode with EC20 endomorphin-1. The format is cell-based.
The mark [3] stands for this setting: maximal response for β-arrestin recruitment.
The mark [4] stands for this setting: β-arrestin recruitment, read-out: β-arr. EC50.
The mark [5] stands for this setting: cAMP EC50, adenylyl cyclase inhibition.
[6] abbreviates: maximal response for adenylyl cyclase inhibition.
Setting [7] is: adenylyl cyclase inhibition, read-out: cAMP EC50.

In general, EC50 refers to the midpoint of the concentration-response curve. As for `FC(F)(F)c1cccc(C2CCCCN2Cc2cc(Cl)ccn2)n1` (stereo not drawn) [compound 162], the “β-arr Max. Resp.” value in test [1] (setting [3]) was “F (F represents a maximal response of > 60%)”. Further, the EC50 in test [1] (setting [4]) and in test [2] (setting [5]) was over 2.1 µM throughout. For the same molecule, the “cAMP Max. Resp.” value in test [2] (setting [6]) was “E (E represents a maximal response of 40-60%)”.
On to `O=S1(=O)CCN(c2nc(Cl)ncc2F)C(c2cc(F)cc(C(F)(F)F)c2)C1` (racemic) [Compound 303], for which the “β-arr Max. Resp.” value in test [1] (setting [3]) was “D (D represents a maximal response of < 40%)”. The EC50 in test [1] (setting [4]) and in test [2] (setting [7]) was over 2.1 µM in each case. Further, the “cAMP Max. Resp.” value in test [2] (setting [6]) is on record as “E (E represents a maximal response of 40-60%)”.
With `Fc1cc(C2CCCCCN2c2nc(Cl)ncc2F)cc(C(F)(F)F)c1` (stereo not drawn) [compound 252], in test [1] (setting [3]), the “β-arr Max. Resp.” value was “F (F represents a maximal response of > 60%)”. For the same molecule, the EC50 in test [1] (setting [4]) and in test [2] (setting [7]) was over 2.1 µM each time. Further, the “cAMP Max. Resp.” value in test [2] (setting [6]) was “E (E represents a maximal response of 40-60%)”.
Take `[2H]C1(c2ccc(F)c(Br)c2)C(F)CCCN1Cc1cccc(Cl)c1` (stereo not drawn) [compound 203]: the “β-arr Max. Resp.” value in test [1] (setting [3]) is “F (F represents a maximal response of > 60%)”. Moreover, the EC50 in test [1] (setting [4]) is over 2.1 µM; in test [2] (setting [5]), under 0.7 µM. Also, the “cAMP Max. Resp.” value in test [2] (setting [6]) is listed as “D (D represents a maximal response of < 40%)”.
Turning to `OC1CCN(c2nc(Cl)ncc2F)C(c2cccc(C(F)(F)F)c2)C1` (stereo not drawn) [compound 202], the “β-arr Max. Resp.” value in test [1] (setting [3]) is given as “F (F represents a maximal response of > 60%)”. The EC50 in test [1] (setting [4]) and in test [2] (setting [5]) was over 2.1 µM in each case. Also, in test [2] (setting [6]), the “cAMP Max. Resp.” value is recorded as “E (E represents a maximal response of 40-60%)”.
In the case of `CC1CC(c2cc(F)cc(C(F)(F)F)c2)N(c2nc(Cl)ncc2F)C1` (stereo not drawn) [compound 450], the “β-arr Max. Resp.” value in test [1] (maximal response, β-arrestin recruitment) is on record as “F (F represents a maximal response of > 60%)”. In addition, the concentration for a half-maximal effect (EC50) in test [1] (setting [4]) and in test [2] (setting [7]) was over 2.1 µM each time. Moreover, in test [2] (maximal response, adenylyl cyclase inhibition), the “cAMP Max. Resp.” value is on record as “E (E represents a maximal response of 40-60%)”.
As for `O=S(=O)(c1ccc(Cl)cc1)N1CCCCC1c1cncc(C(F)(F)F)c1` (racemic) [compound 83], the “β-arr Max. Resp.” value in test [1] (setting [3]) is on record as “D (D represents a maximal response of < 40%)”. For the same molecule, the “β-arrestin Max Response” value in test [1] (β-arrestin recruitment, activity switching by MOR PAMs) is given as “D (D represents a maximal response of < 40%)”. For the same molecule, the EC50 is over 2.1 µM in test [1] (β-arrestin recruitment, activity switching by MOR PAMs, read-out: β-arrestin EC50); over 2.1 µM in test [1] (setting [4]); over 2.1 µM in test [2] (adenylyl cyclase inhibition, activity switching by MOR PAMs, read-out: cAMP EC50); over 2.1 µM in test [2] (setting [7]). For the same molecule, the “cAMP Max Resp.” value in test [2] (adenylyl cyclase inhibition, activity switching by MOR PAMs) is on record as “D (D represents a maximal response of < 40%)”. Further, the “cAMP Max. Resp.” value in test [2] (setting [6]) is “D (D represents a maximal response of < 40%)”.
In the case of `Fc1ccc(Cl)cc1C1CCCCN1c1ccnc(Cl)n1` (stereo not drawn) [compound 406], in test [1] (setting [3]), the “β-arr Max. Resp.” value is “D (D represents a maximal response of < 40%)”. Moreover, the EC50 in test [1] (setting [4]) and in test [2] (setting [5]) was under 0.7 µM in each case. Further, in test [2] (setting [6]), the “cAMP Max. Resp.” value is “D (D represents a maximal response of < 40%)”.
Turning to `Fc1cnc(Cl)nc1N1CCCCC1c1ccc(Cl)c(C(F)(F)F)c1` (single isomer, unassigned) [compound 345], the “β-arr Max. Resp.” value in test [1] (setting [3]) is reported as “D (D represents a maximal response of < 40%)”. In addition, the EC50 in test [1] (setting [4]) and in test [2] (setting [5]) was under 0.7 µM each time. Also, the “cAMP Max. Resp.” value in test [2] (setting [6]) is “D (D represents a maximal response of < 40%)”.
Turning to `Fc1cnc(Cl)nc1N1CCCCC1c1cncnc1` (stereo not drawn) [compound 378], the “β-arr Max. Resp.” value in test [1] (setting [3]) is “D (D represents a maximal response of < 40%)”. Further, the EC50 in test [1] (setting [4]) and in test [2] (setting [5]) was under 0.7 µM in each case. In addition, in test [2] (setting [6]), the “cAMP Max. Resp.” value is given as “D (D represents a maximal response of < 40%)”.
Consider `COc1ccc(C2CCCCN2S(=O)(=O)c2ccc(Cl)cc2)cc1Cl` (racemic) [compound 51], for which, in test [1] (setting [3]), the “β-arr Max. Resp.” value was “F (F represents a maximal response of > 60%)”. The EC50 is over 2.1 µM in test [1] (setting [4]) and 0.7 to 2.1 µM in test [2] (setting [7]). The “cAMP Max. Resp.” value in test [2] (setting [6]) is given as “F (F represents a maximal response of > 60%)”.
For `Fc1cnc(Cl)nc1N1CCCCC1c1cc(C(F)(F)F)ccn1` (stereo not drawn) [compound 278], the “β-arr Max. Resp.” value in test [1] (setting [3]) is “F (F represents a maximal response of > 60%)”. In addition, the EC50 in test [1] (setting [4]) was over 2.1 µM; in test [2] (setting [5]), 0.7 to 2.1 µM. In addition, the “cAMP Max. Resp.” value in test [2] (setting [6]) is on record as “F (F represents a maximal response of > 60%)”.
Regarding `COc1ccc(C2CCCCN2S(=O)(=O)C2CC2)cc1Br` (stereo not drawn) [compound 15], the “β-arr Max. Resp.” value in test [1] (setting [3]) was “E (E represents a maximal response of 40-60%)”. In addition, the EC50 in test [1] (setting [4]) and in test [2] (setting [5]) was over 2.1 µM in each case. In addition, in test [2] (setting [6]), the “cAMP Max. Resp.” value is “E (E represents a maximal response of 40-60%)”.
On to `COc1ccc(C2CCCCCN2S(=O)(=O)c2ccc(Cl)cc2)cc1Br` (racemic) [compound 84], for which, in test [1] (setting [3]), the “β-arr Max. Resp.” value is reported as “E (E represents a maximal response of 40-60%)”. The half-maximal effective concentration (EC50) in test [1] (setting [4]) and in test [2] (setting [7]) was over 2.1 µM each time. The “cAMP Max. Resp.” value in test [2] (setting [6]) was “D (D represents a maximal response of < 40%)”.
